Assays:
[1] = Ocular pharmacokinetics in rabbit eyes; format: in vivo, New Zealand white rabbits
Experimental: The objective of this assay was to determine the pharmacokinetics of the test compound in rabbit ocular tissues.
The compound of the invention, 5-ethyl-2-fluoro-4-(3-(5-(1-methylpiperidin-4-yl)-4,5,6,7-tetrahydro-1H-imidazo[4,5-c]pyridin-2-yl)-1H-indazol-6-yl)phenol (1) was dissolved in either 10% 2-hydroxypropyl-β-cyclodextrin to attain a target concentration of 4 mg/mL or in purified water to attain a target concentration of 1 mg/mL. Bilateral intravitreal injection (50 μL/eye) of the solution of test compound was administered to New Zealand white rabbits in two dose groups, 200 μg/eye and 50 μg/eye, respectively, for the cyclodextrin and water vehicle formulations, respectively. The test compound concentration was measured in ocular tissues: vitreous, aqueous, retina/choroid and iris-ciliary body at pre-determined time points post injection (30 min, 4 h, 1 d, 3 d, 7 d, 14 d). Two rabbits (four eyes) were dosed for each time point.
A suspension formulation was prepared by combining crystalline compound 1 of Example 1 with 0.5% hydroxypropyl methylcellulose (HPMC E5)+0.02% Tween 80 to attain a target concentration of 10 mg/mL. Bilateral intravitreal injection (50 μL/eye) of the suspension of test compound was administered to New Zealand white rabbits (500 μg/eye). The test compound concentration was measured in ocular tissues as in the […] at 30 min, 2 wks, 4 wks, 6 wks, and 8 wks post injection. […] The behavior is consistent with the solubility of compound 1 in the vehicle and the ocular pharmacokinetic behavior in the solution formulation. The drug concentration in plasma was measured and found to be at least 3 orders of magnitude lower than the concentration in vitreous tissue.

[2] = system: IFNγ induced pSTAT1 in rabbit retina/choroid tissue; experiment: Pharmacodynamic assay: inhibition of IFNγ-induced pSTAT1 in rabbit eyes; format: in vivo, New Zealand White rabbits; conditions: 0.9 mg intravitreal suspension, 1 week pre-treatment
Experimental: The ability of a single intravitreal administration of test compound to inhibit interferon-gamma (IFNγ) induced phosphorylation of STAT1 protein (pSTAT1) was measured in rabbit retina/choroid tissue.
A suspension formulation was prepared by combining compound 1 of Example 1, with 0.5% hydroxypropyl methylcellulose (HPMC E5), 0.02% Tween 80, and 9 mg/mL sodium chloride in purified water to attain a target concentration of 20 mg/mL.
Male, New Zealand White rabbits (Liveon Biolabs, India) were used for the studies. Animals were acclimated after arrival at the research facilities (Jubilant Biosys Ltd., India). Each rabbit was given a total of two intravitreal (IVT) injections with a total dose volume of 50 μL per eye. The first IVT injection (45 μL per eye) delivered 0.9 mg of test compound or vehicle. One week later, a second IVT injection (5 μL per eye) delivered IFNγ (1 μg/eye; stock solution 1 mg/mL; Kingfisher Biotech) or vehicle for the induction of IP-10. […]
Tissues were collected 2 hours after the second IVT injection with IFNγ. Retina/choroid tissues (R/C) were collected and homogenized, and pSTAT1 levels were measured by quantitative Western Blot on the ProteinSimple WES instrument. The percent inhibition of IFNγ-induced pSTAT1 was calculated in comparison to the vehicle/vehicle and vehicle/IFNγ groups.

For `CCc1cc(O)c(F)cc1-c1ccc2c(-c3nc4c([nH]3)CCN(C3CCN(C)CC3)C4)n[nH]c2c1` [Example 1, Crystalline hydrate of 5-ethyl-2-fluoro-4-(3-(5-(1-methylpiperidin-4-yl)-4,5,6,7-tetrahydro-1H-imidazo[4,5-c]pyridin-2-yl)-1H-indazol-6-yl)phenol], the “drug concentration in plasma lower than concentration in vitreous tissue” value ([1]; intravitreal injection, listed as compound 1 of Example 1) was “at least 3 orders of magnitude”, the “clearance rate, linear decrease in drug concentration in the vitreous” value ([1]; intravitreal suspension 500 μg/eye, 30 min to 6 weeks) was “approximately 3 μg/mL/day” and the “inhibition of IFNγ-induced pSTAT1” value [2] was 85%.
